Positions of bridges follow the written chain, without caps; N, C: chain ends. Non-standard residues stand in square brackets, D forms with d. Residues, ends and D or L forms follow the SMILES beside them. *: point of attachment. hPhe(3-Cl-4-CF3) = N[C@@H](CCc1ccc(C(F)(F)F)c(Cl)c1)C(=O)O; hPhe(3-F,4-CF3) = N[C@@H](CCc1ccc(C(F)(F)F)c(F)c1)C(=O)O; NMePhe(4-CF3) = CN[C@@H](Cc1ccc(C(F)(F)F)cc1)C(=O)O; 3Oxa8azabicyclo(3.2.1)octane = C1CC2COCC1N2*; NEtPhe(4-Me) = CCN[C@@H](Cc1ccc(C)cc1)C(=O)O; NMePhe(4-Me) = CN[C@@H](Cc1ccc(C)cc1)C(=O)O; NMeAla(cPent) = CN[C@@H](CC1CCCC1)C(=O)O; NMeGly(cPent) = CN[C@H](C(=O)O)C1CCCC1; NMeCha = CN[C@@H](CC1CCCCC1)C(=O)O; NMehLeu = CN[C@@H](CCC(C)C)C(=O)O; NEtLeu = CCN[C@@H](CC(C)C)C(=O)O; NMeI = CC[C@H](C)[C@H](NC)C(=O)O; Piperidide(4-Me) = CC1CCN(*)CC1; NMeD = CN[C@@H](CC(=O)O)C(=O)O; NMeL = CN[C@@H](CC(C)C)C(=O)O; NMeV = CN[C@H](C(=O)O)C(C)C; Azetidin(1-yl) = C1CN(*)C1; NMeS = CN[C@@H](CO)C(=O)O; Morpholide = C1CN(*)CCO1; NMeA = CN[C@@H](C)C(=O)O; Ac5c = NC1(C(=O)O)CCCC1; Aze = O=C(O)[C@@H]1CCN1; Sar = CNCC(=O)O; Propyl = CCC*
tested on: Human pancreatic cancer cell line AsPC-1; experiment: Measurement of AsPC-1 cell growth inhibition (AsPC-1 CGI); format: cell-based; conditions: 96 h
Summary of the method: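 AsPC-1 cells in 15% FBS RPMI-1640 were exposed to test compound for 96 hours at 37° C, with CellTiter-Glo as endpoint.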

With CC[C@H](C)[C@@H]1NC(=O)[C@H](CC(C)C)N(CC)C(=O)C[C@@H](C(=O)N2CCOCC2)N(C)C(=O)[C@H]([C@@H](C)CC)N(C)C(=O)C2(CCCC2)NC(=O)[C@@H]2CCCN2C(=O)[C@H](CCc2ccc(C(F)(F)F)c(Cl)c2)NC(=O)CN(C)C(=O)[C@H](Cc2ccc(C(F)(F)F)cc2)N(C)C(=O)[C@@H]2CCN2C(=O)[C@H](C)NC1=O [Compound 1233] ([NEtLeu]IA[Aze][NMePhe(4-CF3)][Sar][hPhe(3-Cl-4-CF3)]P[Ac5c][NMeI][NMeD]-Morpholide; lactam N-11) as the molecule, how does the IC50 read?
The IC50 was 50 to 100 nM.

For CC[C@H](C)[C@@H]1NC(=O)[C@H](CC(C)C)N(C)C(=O)C[C@@H](C(=O)N2C3CCC2COC3)N(C)C(=O)[C@H](C2CCCC2)N(C)C(=O)C2(CCCC2)NC(=O)[C@@H]2CCCN2C(=O)[C@H](CCc2ccc(C(F)(F)F)c(Cl)c2)NC(=O)CN(C)C(=O)[C@H](Cc2ccc(C)cc2)N(CC)C(=O)[C@@H]2CCN2C(=O)[C@H](C)N(C)C1=O [Compound 1236] ([NMeL]I[NMeA][Aze][NEtPhe(4-Me)][Sar][hPhe(3-Cl-4-CF3)]P[Ac5c][NMeGly(cPent)][NMeD]-{3Oxa8azabicyclo(3.2.1)octane}; lactam N-11), which IC50 is on record?
Its IC50 is 20 to 50 nM.

CCCOC[C@H]1C(=O)N(C)CC(=O)N[C@@H](CCc2ccc(C(F)(F)F)c(Cl)c2)C(=O)N2CCC[C@H]2C(=O)NC2(CCCC2)C(=O)N(C)[C@@H](C2CCCC2)C(=O)N(C)[C@H](C(=O)N2C3CCC2COC3)CC(=O)N(C)[C@@H](CC2CCCC2)C(=O)N[C@@H]([C@@H](C)CC)C(=O)N(C)[C@@H](C)C(=O)N2CC[C@H]2C(=O)N1C [Compound 1251] ([NMeAla(cPent)]I[NMeA][Aze][NMeS](Propyl)[Sar][hPhe(3-Cl-4-CF3)]P[Ac5c][NMeGly(cPent)][NMeD]-{3Oxa8azabicyclo(3.2.1)octane}; lactam N-11) was tested. Which IC50 did it give?
The IC50 was 20 to 50 nM.

For CC[C@H](C)[C@@H]1NC(=O)[C@H](CC(C)C)N(CC)C(=O)C[C@@H](C(=O)N2CCC2)N(C)C(=O)[C@H](C2CCCC2)N(C)C(=O)C2(CCCC2)NC(=O)[C@@H]2CCCN2C(=O)[C@H](CCc2ccc(C(F)(F)F)c(Cl)c2)NC(=O)CN(C)C(=O)[C@H](CC2CCCCC2)N(C)C(=O)[C@@H]2CCN2C(=O)[C@H](C)NC1=O [Compound 1262] ([NEtLeu]IA[Aze][NMeCha][Sar][hPhe(3-Cl-4-CF3)]P[Ac5c][NMeGly(cPent)][NMeD]-{Azetidin(1-yl)}; lactam N-11), which IC50 is on record?
Its IC50 is 100 to 500 nM.

CC[C@H](C)[C@@H]1NC(=O)[C@H](CC(C)C)N(CC)C(=O)C[C@@H](C(=O)N2CCOCC2)N(C)C(=O)[C@H](C2CCCC2)N(C)C(=O)C2(CCCC2)NC(=O)[C@@H]2CCCN2C(=O)[C@H](CCc2ccc(C(F)(F)F)c(Cl)c2)NC(=O)CN(C)C(=O)[C@H](CC2CCCCC2)N(C)C(=O)[C@@H]2CCN2C(=O)[C@H](C)NC1=O [Compound 1266] ([NEtLeu]IA[Aze][NMeCha][Sar][hPhe(3-Cl-4-CF3)]P[Ac5c][NMeGly(cPent)][NMeD]-Morpholide; lactam N-11) was tested. Which IC50 did it give?
The IC50 was 100 to 500 nM.

CC[C@H](C)[C@@H]1NC(=O)[C@H](CC(C)C)N(CC)C(=O)C[C@@H](C(=O)N(C)C)N(C)C(=O)[C@H]([C@@H](C)CC)N(C)C(=O)C2(CCCC2)NC(=O)[C@@H]2CCCN2C(=O)[C@H](CCc2ccc(C(F)(F)F)c(Cl)c2)NC(=O)CN(C)C(=O)[C@H](Cc2ccc(C)cc2)N(C)C(=O)[C@@H]2CCN2C(=O)[C@H](C)NC1=O [Compound 1287] ([NEtLeu]IA[Aze][NMePhe(4-Me)][Sar][hPhe(3-Cl-4-CF3)]P[Ac5c][NMeI][NMeD]-NMe2; lactam N-11) was tested. Which IC50 did it give?
The IC50 was 20 to 50 nM.

CC[C@H](C)[C@@H]1NC(=O)[C@H](CC(C)C)N(C)C(=O)C[C@@H](C(=O)N2CCC(C)CC2)N(C)C(=O)[C@H](C(C)C)N(C)C(=O)C2(CCCC2)NC(=O)[C@@H]2CCCN2C(=O)[C@H](CCc2ccc(C(F)(F)F)c(Cl)c2)NC(=O)CN(C)C(=O)[C@H](CC2CCCCC2)N(C)C(=O)[C@@H]2CCN2C(=O)[C@H](C)N(C)C1=O [Compound 1291] ([NMeL]I[NMeA][Aze][NMeCha][Sar][hPhe(3-Cl-4-CF3)]P[Ac5c][NMeV][NMeD]-{Piperidide(4-Me)}; lactam N-11) was tested. Which IC50 did it give?
Its IC50 is 100 to 500 nM.

Which IC50 does the source give for CC[C@H](C)[C@@H]1NC(=O)[C@H](CCC(C)C)N(C)C(=O)C[C@@H](C(=O)N(C)C)N(C)C(=O)[C@H](C2CCCC2)N(C)C(=O)C2(CCCC2)NC(=O)[C@@H]2CCCN2C(=O)[C@H](CCc2ccc(C(F)(F)F)c(F)c2)NC(=O)CN(C)C(=O)[C@H](CC2CCCCC2)N(C)C(=O)[C@@H]2CCN2C(=O)[C@H](C)NC1=O [Compound 1292] ([NMehLeu]IA[Aze][NMeCha][Sar][hPhe(3-F,4-CF3)]P[Ac5c][NMeGly(cPent)][NMeD]-NMe2; lactam N-11) here?
Its IC50 is 20 to 50 nM.

For CCCOC[C@H]1C(=O)N(C)CC(=O)N[C@@H](CCc2ccc(C(F)(F)F)c(Cl)c2)C(=O)N2CCC[C@H]2C(=O)NC2(CCCC2)C(=O)N(C)[C@@H](C2CCCC2)C(=O)N(C)[C@H](C(=O)N2C3CCC2COC3)CC(=O)N(C)[C@@H](CC(C)C)C(=O)N[C@@H]([C@@H](C)CC)C(=O)N[C@@H](C)C(=O)N2CC[C@H]2C(=O)N1C [Compound 1299] ([NMeL]IA[Aze][NMeS](Propyl)[Sar][hPhe(3-Cl-4-CF3)]P[Ac5c][NMeGly(cPent)][NMeD]-{3Oxa8azabicyclo(3.2.1)octane}; lactam N-11), which IC50 is on record?
Its IC50 is 20 to 50 nM.

Reference: patent US12371454B2, “Cyclic peptide compound having Kras inhibitory action” (priority 2019, dated 2025)
